# Experimental data taken from patent publication US6162417A, “Pyrrolo isoquinolines” (Emory University, priority 1998, dated 2000).
# “Also recorded” adds a separate entry of the source. Where two headings read alike, the source gives them in different places.
# Legend:
# [1] = molecular target: T1, human serotonin transporter (Homo sapiens, UniProt P31645); assay: Binding site inhibition in HEK-293 cell membranes transfected with human serotonin transporter ([3H]Citalopram); settings: for in vitro affinity/selectivity for transporter sites: human transporters, Table 3
# T1 construct: expressed in transfected cells; host or cells: HEK-293, stably transfected
# T1 sequence (P31645 whole entry): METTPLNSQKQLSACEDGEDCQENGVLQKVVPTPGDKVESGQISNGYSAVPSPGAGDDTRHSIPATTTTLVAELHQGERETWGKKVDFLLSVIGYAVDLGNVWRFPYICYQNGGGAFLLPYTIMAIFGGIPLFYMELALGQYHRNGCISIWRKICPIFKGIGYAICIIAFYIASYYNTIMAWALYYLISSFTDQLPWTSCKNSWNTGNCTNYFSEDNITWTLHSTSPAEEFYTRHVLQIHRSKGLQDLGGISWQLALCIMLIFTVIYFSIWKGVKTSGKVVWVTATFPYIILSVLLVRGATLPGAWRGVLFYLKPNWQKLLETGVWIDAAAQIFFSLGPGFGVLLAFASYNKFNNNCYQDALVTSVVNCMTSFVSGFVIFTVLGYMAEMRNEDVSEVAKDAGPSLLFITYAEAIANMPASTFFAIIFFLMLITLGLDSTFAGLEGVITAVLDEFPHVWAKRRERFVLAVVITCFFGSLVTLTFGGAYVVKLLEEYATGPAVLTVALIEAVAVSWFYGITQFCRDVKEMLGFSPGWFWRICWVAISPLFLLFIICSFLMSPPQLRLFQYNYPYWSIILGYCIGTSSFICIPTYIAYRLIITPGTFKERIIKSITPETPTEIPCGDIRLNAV
# [2] = molecular target: T2, human dopamine transporter (Homo sapiens, UniProt Q01959); assay: Binding site inhibition in MDCK cell membranes transfected with human dopamine transporter ([3H]WIN 35428)
# T2 construct: expressed in transfected cells; host or cells: MDCK (dog kidney) cells, stably transfected
# T2 sequence (Q01959 whole entry): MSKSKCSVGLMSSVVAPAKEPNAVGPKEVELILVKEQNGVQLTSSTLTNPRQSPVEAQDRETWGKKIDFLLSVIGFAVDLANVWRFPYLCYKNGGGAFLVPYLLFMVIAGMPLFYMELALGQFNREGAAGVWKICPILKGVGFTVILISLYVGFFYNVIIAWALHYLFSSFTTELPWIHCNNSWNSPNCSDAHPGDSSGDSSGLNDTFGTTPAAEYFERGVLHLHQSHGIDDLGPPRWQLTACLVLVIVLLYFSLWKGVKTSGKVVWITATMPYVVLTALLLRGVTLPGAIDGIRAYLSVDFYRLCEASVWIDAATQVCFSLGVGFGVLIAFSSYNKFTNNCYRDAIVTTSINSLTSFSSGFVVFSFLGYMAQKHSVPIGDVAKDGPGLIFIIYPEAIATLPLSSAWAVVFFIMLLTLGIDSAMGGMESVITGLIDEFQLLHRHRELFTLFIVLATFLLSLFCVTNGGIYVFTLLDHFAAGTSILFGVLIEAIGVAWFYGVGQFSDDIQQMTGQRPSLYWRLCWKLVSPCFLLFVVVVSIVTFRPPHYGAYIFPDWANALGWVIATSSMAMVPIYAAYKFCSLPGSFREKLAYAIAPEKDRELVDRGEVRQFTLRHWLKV
# [3] = molecular target: T3, human norepinephrine transporter (Homo sapiens, UniProt P23975); assay: Binding site inhibition in HEK-293 cell membranes transfected with human norepinephrine transporter ([3H]Nisoxetine); settings: HEK-293 cells, human NE transporter; vs. [3H]Nisoxetine
# T3 construct: expressed in transfected cells; host or cells: HEK-293, stably transfected
# T3 sequence (P23975 whole entry): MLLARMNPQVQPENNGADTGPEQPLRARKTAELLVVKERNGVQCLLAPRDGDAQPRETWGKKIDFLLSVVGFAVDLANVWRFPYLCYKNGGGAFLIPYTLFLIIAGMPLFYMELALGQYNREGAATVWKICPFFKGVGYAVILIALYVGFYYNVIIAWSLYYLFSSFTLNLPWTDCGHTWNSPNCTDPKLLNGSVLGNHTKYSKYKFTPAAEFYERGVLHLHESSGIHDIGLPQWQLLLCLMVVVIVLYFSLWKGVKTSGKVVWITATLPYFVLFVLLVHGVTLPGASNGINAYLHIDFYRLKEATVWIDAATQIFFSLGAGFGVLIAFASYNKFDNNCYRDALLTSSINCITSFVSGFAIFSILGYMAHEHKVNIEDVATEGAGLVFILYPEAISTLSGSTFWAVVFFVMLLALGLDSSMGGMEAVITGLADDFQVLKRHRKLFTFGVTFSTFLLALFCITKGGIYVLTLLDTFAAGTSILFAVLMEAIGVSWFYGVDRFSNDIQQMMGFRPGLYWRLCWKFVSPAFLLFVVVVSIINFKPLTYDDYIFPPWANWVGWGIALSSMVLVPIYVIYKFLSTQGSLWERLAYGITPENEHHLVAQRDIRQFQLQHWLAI
# Source text: ^2 [^3 H]Nisoxetine as reference/control for norepinephrine
# [4] = molecular target: T4, serotonin transporter (Rattus norvegicus, UniProt P31652); assay: Transporter binding site inhibition in rat brain striatal and cortical membranes - serotonin transporter ([3H]citalopram); settings: for in vitro affinity/selectivity for the serotonin transporter: rat membranes, Table 2
# T4 construct: in rat cortical and striatal homogenates; from tissue; host or cells: rat brain, striatal and cortical homogenates/membranes
# T4 sequence (P31652 whole entry): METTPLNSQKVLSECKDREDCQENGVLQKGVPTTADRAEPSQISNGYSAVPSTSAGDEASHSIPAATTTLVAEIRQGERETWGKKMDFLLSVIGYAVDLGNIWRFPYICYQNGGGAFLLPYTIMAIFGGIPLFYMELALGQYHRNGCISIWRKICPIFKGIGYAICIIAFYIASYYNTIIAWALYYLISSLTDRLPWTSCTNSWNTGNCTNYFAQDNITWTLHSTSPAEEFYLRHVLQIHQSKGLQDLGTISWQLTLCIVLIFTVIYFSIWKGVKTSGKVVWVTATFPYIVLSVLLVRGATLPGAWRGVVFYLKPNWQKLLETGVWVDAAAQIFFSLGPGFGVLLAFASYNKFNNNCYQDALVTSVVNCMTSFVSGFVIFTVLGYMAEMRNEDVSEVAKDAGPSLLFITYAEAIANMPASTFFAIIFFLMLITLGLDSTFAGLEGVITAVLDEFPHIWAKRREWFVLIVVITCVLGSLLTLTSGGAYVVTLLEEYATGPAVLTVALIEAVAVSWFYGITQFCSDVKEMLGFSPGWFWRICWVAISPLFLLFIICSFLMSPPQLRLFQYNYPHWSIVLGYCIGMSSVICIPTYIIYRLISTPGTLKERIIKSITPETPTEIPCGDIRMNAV
# Source text: (§1) Transporter Binding Site Inhibition Data for Various
# (§2) Ligands in Rat Brain Striatial and Cortical Membranes
# [5] = molecular target: T5, norepinephrine transporter (Rattus norvegicus, UniProt Q63380); assay: Transporter binding site inhibition in rat brain striatal and cortical membranes - norepinephrine transporter ([3H]desmethylimipramine); settings: vs. [3H]desmethylimipramine, read-out: NE Ki
# T5 construct: in rat cortical and striatal homogenates; from tissue; host or cells: rat brain, striatal and cortical homogenates/membranes
# T5 sequence (Q63380 1-617): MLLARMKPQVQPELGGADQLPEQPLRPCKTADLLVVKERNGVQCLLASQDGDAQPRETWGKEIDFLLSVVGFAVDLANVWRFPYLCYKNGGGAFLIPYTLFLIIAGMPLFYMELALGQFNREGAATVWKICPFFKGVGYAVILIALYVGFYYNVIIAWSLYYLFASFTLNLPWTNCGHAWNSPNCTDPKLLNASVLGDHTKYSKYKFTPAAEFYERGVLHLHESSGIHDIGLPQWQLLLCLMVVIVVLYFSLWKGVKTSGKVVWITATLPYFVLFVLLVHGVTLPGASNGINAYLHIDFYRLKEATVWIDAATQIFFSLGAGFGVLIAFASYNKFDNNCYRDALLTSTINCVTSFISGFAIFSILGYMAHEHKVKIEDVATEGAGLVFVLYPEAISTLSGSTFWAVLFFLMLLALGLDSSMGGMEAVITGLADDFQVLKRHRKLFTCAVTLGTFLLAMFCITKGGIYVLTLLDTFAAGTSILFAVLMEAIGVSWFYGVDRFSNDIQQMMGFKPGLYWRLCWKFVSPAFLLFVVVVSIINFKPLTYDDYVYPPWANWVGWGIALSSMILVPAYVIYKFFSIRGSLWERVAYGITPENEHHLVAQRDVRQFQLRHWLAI
# Source text: as §1, §2
# [6] = molecular target: T6, dopamine transporter (Rattus norvegicus, UniProt P23977); assay: Transporter binding site inhibition in rat brain striatal and cortical membranes - dopamine transporter ([3H]WIN 35428)
# T6 construct: in rat cortical and striatal homogenates; from tissue; host or cells: rat brain, striatal and cortical homogenates/membranes
# T6 sequence (P23977 whole entry): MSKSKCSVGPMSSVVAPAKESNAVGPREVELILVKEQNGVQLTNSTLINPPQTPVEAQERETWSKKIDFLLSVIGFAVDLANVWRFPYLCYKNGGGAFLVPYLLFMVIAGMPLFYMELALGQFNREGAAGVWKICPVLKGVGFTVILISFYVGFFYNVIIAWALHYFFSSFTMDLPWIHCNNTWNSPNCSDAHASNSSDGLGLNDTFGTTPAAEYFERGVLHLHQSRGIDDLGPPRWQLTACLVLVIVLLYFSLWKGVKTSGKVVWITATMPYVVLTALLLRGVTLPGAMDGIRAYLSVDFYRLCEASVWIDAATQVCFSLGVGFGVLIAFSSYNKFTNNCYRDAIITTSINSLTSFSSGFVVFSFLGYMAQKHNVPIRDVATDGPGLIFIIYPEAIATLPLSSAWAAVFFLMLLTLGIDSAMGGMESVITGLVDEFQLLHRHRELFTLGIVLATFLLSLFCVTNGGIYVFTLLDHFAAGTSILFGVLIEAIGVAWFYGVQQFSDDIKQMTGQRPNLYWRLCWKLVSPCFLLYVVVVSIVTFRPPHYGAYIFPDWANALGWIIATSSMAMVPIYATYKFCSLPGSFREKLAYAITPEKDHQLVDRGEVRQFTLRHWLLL
# Source text: as §1, §2
# [7] = tested on: serotonin transporter; settings: carbon-11 label; cited from earlier work
# [8] = HEK-293 cells, human serotonin transporter, vs. [3H]Citalopram, read-out: 5-HT Ki
# [9] = MDCK cells, human DA transporter, vs. [3H]WIN 35428, read-out: DA Ki
# [10] = rat striatal/cortical membranes, vs. [3H]citalopram, read-out: 5-HT Ki
# [11] = rat striatal/cortical membranes, vs. [3H]WIN 35428, read-out: DA Ki
smiles,measurement,setting,value
"Fc1cccc2c1[C@H]1CCCN1C[C@H]2c1ccc(Br)cc1 (relative stereo) [racemic Br, X = F at position 10]",Ki,[1]; [8],1.6 nM
same,Ki,[2]; [9],0.15 nM
same,affinity and selectivity for the dopamine transporter,"[2]; human transporters, Table 3",high affinity and selectivity for the dopamine transporter
same,Ki,[3],5 nM
"COC(=O)[C@H]1[C@@H](c2ccc(I)cc2)C[C@@H]2CC[C@H]1N2C [RTI-55 (CIT), reference compound]",Ki,[1]; [8],0.67 nM
same,in vitro affinity/selectivity for transporter sites,[1],"high affinity for both serotonin and dopamine transporter sites, and is selective for these two sites versus norepinephrine transporter site"
same,Ki,[2],0.47 nM
same,Ki,[3],38.9 nM
FCC#Cc1ccc([C@@H]2CN3CCC[C@@H]3c3ccccc32)cc1 (relative stereo) [racemic C=CCH2 F],Ki,[1]; [8],8.6 nM
same,Ki,[2]; [9],11.3 nM
same,Ki,[3],24 nM
Brc1ccc([C@@H]2CN3CCC[C@@H]3c3ccccc32)cc1 (relative stereo) [racemic Br],Ki,[1]; [8],0.68 nM
same,Ki,[2]; [9],0.07 nM
same,Ki,[3],2.3 nM
"Brc1ccc([C@@H]2CN3CCC[C@@H]3c3ccccc32)cc1 (relative stereo) [compound 5, trans-1,2,3,5,6,10b-hexahydro-6-[4-bromophenyl]pyrrolo-[2,1-a]isoquinoline]",in vitro affinity/selectivity for the serotonin transporter,[4],high in vitro affinity for the serotonin transporter
same,Ki,[4]; [10],5.1 nM
same,Ki,[5],2390 nM
same,Ki,[6]; [11],9.6 nM
"Ic1ccc([C@@H]2CN3CCC[C@@H]3c3ccccc32)cc1 (relative stereo) [compound 6, trans-1,2,3,5,6,10b-hexahydro-6-[4-iodophenyl]pyrrolo-[2,1-a]isoquinoline]",in vitro affinity/selectivity for the serotonin transporter,[4],high in vitro affinity and good selectivity for the serotonin transporter
same,Ki,[4]; [10],2.3 nM
same,Ki,[5],961 nM
same,Ki,[1],0.9 nM
same,in vitro affinity/selectivity for transporter sites,[1],"high affinity for both serotonin and dopamine transporter sites, and is selective for these two sites versus norepinephrine transporter site"
same,Ki,[6]; [11],14 nM
same,Ki,[2]; [9],0.9 nM
same,Ki,[3],10 nM
[11CH3]Sc1ccc([C@H]2CN3CCC[C@H]3c3ccccc32)cc1 [Carbon-11 McN-5652Z],accumulation in brain regions,[7],greatest accumulation in brain regions rich in serotoninergic neurons
"FC/C=C\c1ccc([C@@H]2CN3CCC[C@@H]3c3ccccc32)cc1 (relative stereo) [compound 19, trans-1,2,3,5,6,10b-hexahydro-6-[4'Z-(3-fluoro-1-propenyl)phenyl]pyrrolo-[2,1-a]isoquinoline]",Ki,[4],2.8 nM
same,in vitro affinity/selectivity for the serotonin transporter,[4],high affinity for and the most selectivity for the serotonin transporter
same,Ki,[1],1 nM
same,in vitro affinity/selectivity for transporter sites,[1],"high selectivity and affinity for serotonin transporter sites, compared with dopamine transporter site; also recorded: more selective than McN-5652Z for the serotonin transporter site, compared to the dopamine transporter site; also recorded: very high and equal affinity for the serotonin transporter site"
same,Ki,[6],221 nM
same,Ki,[2]; [9],220 nM
"Ic1ccc([C@@H]2CN3CCC[C@@H]3c3ccccc32)cc1 [compound 6, trans (95% ee) (6S, 10bR), (+)-(6S, 10bR)-1,2,3,5,6,10b-hexahydro-6-(4'-iodophenyl)pyrrolo[2,1-a]isoquinoline]",Ki,[1],0.9 nM
same,Ki,[2]; [9],0.9 nM
same,Ki,[3],10 nM
